# Target: Human factor D (Homo sapiens (Human), UniProt P00746)
# Experiment: Human Factor D Assay
# Type: biochemical
# Conditions: human factor D 80 nM, substrate Z-L-Lys-SBzl, DTNB, OD405
# Procedure: Human factor D (purified from human serum, Complement Technology, Inc.) at 80 nM final concentration is incubated with test compound at various concentrations for 5 minutes at room temperature in 50 mM Tris, 1M NaCl, pH 7.5. A synthetic substrate Z-L-Lys-SBzl and DTNB (Ellman's reagent) are added to final concentrations of 10 μM each. The increase in color is recorded at OD405 nm in a microplate in kinetic mode over 30 minutes with 30 second time points in a […]. IC50 values are calculated by non-linear regression from the percentage of inhibition of complement factor D activity as a function of test compound concentration.
# Human factor D, sequence (P00746 26-253): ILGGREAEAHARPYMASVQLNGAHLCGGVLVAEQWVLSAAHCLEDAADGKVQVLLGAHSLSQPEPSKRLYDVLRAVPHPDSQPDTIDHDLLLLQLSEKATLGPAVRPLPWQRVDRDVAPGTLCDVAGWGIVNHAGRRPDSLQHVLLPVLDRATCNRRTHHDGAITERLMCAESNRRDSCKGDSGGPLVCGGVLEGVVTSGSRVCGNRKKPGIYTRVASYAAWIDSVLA
row,Structure (SMILES),IC50
1,"COc1ccc2c(O[C@@H]3C[C@@H](C(=O)NCc4cccc(Cl)c4F)N(C(=O)Nc4cn(C(C)=O)c5ccccc45)C3)cc(-c3ccccc3)nc2c1 [Compound 19, (2S,4R)-N1-(1-acetyl-1H-indol-3-yl)-N2-(3-chloro-2-fluorobenzyl)-4-(7-methoxy-2-phenylquinolin-4-yloxy)pyrrolidine-1,2-dicarboxamide]",> 10 µM
2,"CC(=O)c1cn(CC(=O)N2[C@H](C(=O)NCc3cccc(Cl)c3F)C[C@@H]3CCCC[C@@H]32)c2cc(O)ccc12 [Compound 35, (2S,3aS,7aS)-1-(2-(3-acetyl-6-hydroxy-1H-indol-1-yl)acetyl)-N-(3-chloro-2-fluorobenzyl)octahydro-1H-indole-2-carboxamide]",< 1 µM
3,"CC(=O)c1cn(CC(=O)N2C[C@H](F)C[C@H]2C(=O)Nc2cccc(-c3ccccc3Cl)c2F)c2c(C#Cc3ncc(F)cn3)cccc12 [Compound 124, (2S,4R)-1-(2-(3-acetyl-7-((5-fluoropyrimidin-2-yl)ethynyl)-1H-indol-1-yl)acetyl)-N-(2′-chloro-2-fluorobiphenyl-3-yl)-4-fluoropyrrolidine-2-carboxamide]",< 1 µM
4,"CC(=O)n1cc(NC(=O)[C@H]2CC(F)(F)CN2C(=O)Cc2cccc(Cl)c2F)c2ccccc21 [Compound 17, (R)-N-(1-acetyl-1H-indol-3-yl)-1-(2-(3-chloro-2-fluorophenyl)acetyl)-4,4-difluoropyrrolidine-2-carboxamide]",> 10 µM
5,"CC(=O)n1cc(CC(=O)N2C[C@H](F)C[C@H]2C(=O)Nc2cccc(-c3ccccc3Cl)c2F)c2ccsc21 [Compound 90, (2S,4R)-1-(2-(6-acetyl-6H-thieno[2,3-b]pyrrol-4-yl)acetyl)-N-(2′-chloro-2-fluorobiphenyl-3-yl)-4-fluoropyrrolidine-2-carboxamide]",< 1 µM
6,"NC(=O)n1cc(NC(=O)N2C[C@H](F)C[C@H]2C(=O)NS(=O)(=O)c2cccc(Cl)c2F)c2ccccc21 [Compound 6, (2S,4R)-N1-(1-carbamoyl-1H-indol-3-yl)-N2-(3-chloro-2-fluorophenylsulfonyl)-4-fluoropyrrolidine-1,2-dicarboxamide]",> 10 µM
7,"NS(=O)(=O)c1cn(CC(=O)N2C[C@H](F)C[C@H]2C(=O)NCc2cccc(Cl)c2F)c2ccccc12 [Compound 76, (2S,4R)-N-(3-chloro-2-fluorobenzyl)-4-fluoro-1-(2-(3-sulfamoyl-1H-indol-1-yl)acetyl)pyrrolidine-2-carboxamide]",< 1 µM
8,"O=C(O)CCC(=O)N1CCc2c(n(CC(=O)N3C[C@H](F)C[C@H]3C(=O)NCc3cccc(Cl)c3F)c3ccccc23)C1 [Compound 72, 4-(9-(2-((2S,4R)-2-(3-chloro-2-fluorobenzylcarbamoyl)-4-fluoropyrrolidin-1-yl)-2-oxoethyl)-3,4-dihydro-1H-pyrido[3,4-b]indol-2(9H)-yl)-4-oxobutanoic acid]",> 10 µM
9,"CC(=O)n1cc(NC(=O)[C@H]2CCCN2C(=O)NCc2cccc(Cl)c2F)c2ccccc21 [Compound 9, (R)-N2-(1-acetyl-1H-indol-3-yl)-N1-(3-chloro-2-fluorobenzyl) pyrrolidine-1,2-dicarboxamide]",> 10 µM
10,"CC(=O)c1cn(CC(=O)N2C[C@H](F)C[C@H]2C(=O)N2Cc3ccccc3C2)c2ccccc12 [Compound 33, 2-(3-acetyl-1H-indol-1-yl)-1-((2S,4R)-4-fluoro-2-(isoindoline-2-carbonyl)pyrrolidin-1-yl)ethanone]",> 10 µM
11,"NC(=O)c1nn(CC(=O)N2C[C@H](F)C[C@H]2C(=O)Nc2cccc(-c3cc(F)c(F)cc3Cl)c2F)c2cnccc12 [Compound 83, 1-(2-((2S,4R)-2-(2′-chloro-2,4′,5′-trifluorobiphenyl-3-ylcarbamoyl)-4-fluoropyrrolidin-1-yl)-2-oxoethyl)-1H-pyrazolo[3,4-c]pyridine-3-carboxamide]",< 1 µM
12,"CC(=O)c1cn(CC(=O)N2C[C@H](F)C[C@H]2C(=O)Nc2cccc(-c3ccc(F)c(F)c3Cl)c2F)c2ccccc12 [Compound 93, (2S,4R)-1-(2-(3-acetyl-1H-indol-1-yl)acetyl)-N-(2′-chloro-2,3′,4′-trifluorobiphenyl-3-yl)-4-fluoropyrrolidine-2-carboxamide]",< 1 µM
13,CC(=O)c1cn(C(C)(C)C(=O)N2C[C@H](F)C[C@H]2C(=O)NCc2cccc(Cl)c2F)c2ccccc12 [Compound 56],> 10 µM
14,"CC(=O)c1cn(CC(=O)N2C[C@H](F)C[C@H]2c2ncc(-c3cccc(Cl)c3)[nH]2)c2ccccc12 [Compound 11, 2-(3-acetyl-1H-indol-1-yl)-1-((2S,4R)-2-(5-(3-chlorophenyl)-1H-imidazol-2-yl)-4-fluoropyrrolidin-1-yl)ethanone]",> 10 µM
15,"CC(=O)Nc1ccc(C(=O)N2C[C@H](F)C[C@H]2C(=O)NCc2cccc(Cl)c2F)cn1 [Compound 51, (2S,4R)-1-(6-acetamidonicotinoyl)-N-(3-chloro-2-fluorobenzyl)-4-fluoropyrrolidine-2-carboxamide]",> 10 µM
16,"NC(=O)c1cn(CC(=O)N2C[C@H](F)C[C@H]2c2nc3cc(-c4ccccc4Cl)ccc3[nH]2)c2ccccc12 [Compound 121, 1-(2-((2S,4R)-2-(5-(2-chlorophenyl)-1H-benzo[d]imidazol-2-yl)-4-fluoropyrrolidin-1-yl)-2-oxoethyl)-1H-indole-3-carboxamide]",> 10 µM
17,"O=C1CCCc2c1c1ccccc1n2CC(=O)N1C[C@H](F)C[C@H]1C(=O)NCc1cccc(Cl)c1F [Compound 37, (2S,4R)-N-(3-chloro-2-fluorobenzyl)-4-fluoro-1-(2-(4-oxo-3,4-dihydro-1H-carbazol-9(2H)-yl)acetyl)pyrrolidine-2-carboxamide]",< 1 µM
18,"O=C(NCc1cccc(Cl)c1F)[C@@H]1C[C@@H](F)CN1C(=O)CN1C=NS(=O)(=O)c2ccccc21 [Compound 65, (2S,4R)-N-(3-chloro-2-fluorobenzyl)-1-(2-(1,1-dioxido-4H-benzo[e][1,2,4]thiadiazin-4-yl)acetyl)-4-fluoropyrrolidine-2-carboxamide]",> 10 µM
19,"NC(=O)c1nn(CC(=O)N2C[C@H](F)C[C@H]2C(=O)Nc2cccc(-c3ccc4[nH]cnc4c3Cl)c2F)c2ccccc12 [Compound 122, 1-(2-((2S,4R)-2-(3-(4-chloro-1H-benzo[d]imidazol-5-yl)-2-fluorophenylcarbamoyl)-4-fluoropyrrolidin-1-yl)-2-oxoethyl)-1H-indazole-3-carboxamide]",< 1 µM
20,"CC(=O)n1cc(NC(=O)Nc2cn(C(C)=O)c3ccccc23)c2ccccc21 [Compound 20, 1,3-bis(1-acetyl-1H-indol-3-yl)urea]",> 10 µM
21,"CC(=O)n1cc(NC(=O)[C@H]2CC(F)(F)CN2C(=O)NCc2cccc(Cl)c2F)c2ccccc21 [Compound 8, (R)-N2-(1-acetyl-1H-indol-3-yl)-N1-(3-chloro-2-fluorobenzyl)-4,4-difluoropyrrolidine-1,2-dicarboxamide]",> 10 µM
22,"O=C(NCc1cccc(Cl)c1F)[C@@H]1C[C@@H](F)CN1C(=O)Nc1cn(C(=O)C2CC2)c2ccccc12 [Compound 54, (2S,4R)-N2-(3-chloro-2-fluorobenzyl)-N1-(1-(cyclopropanecarbonyl)-1H-indol-3-yl)-4-fluoropyrrolidine-1,2-dicarboxamide]",< 1 µM
23,"CC(=O)n1cc(C(=O)C(=O)N2C[C@H](F)C[C@H]2C(=O)NCc2cccc(Cl)c2F)c2ccccc21 [Compound 71, (2S,4R)-1-(2-(1-acetyl-1H-indol-3-yl)-2-oxoacetyl)-N-(3-chloro-2-fluorobenzyl)-4-fluoropyrrolidine-2-carboxamide]",> 10 µM
24,"CCOC(=O)CC(=O)N1CCc2c(n(CC(=O)N3C[C@H](F)C[C@H]3C(=O)NCc3cccc(Cl)c3F)c3ccccc23)C1 [Compound 70, ethyl 3-(9-(2-((2S,4R)-2-(3-chloro-2-fluorobenzylcarbamoyl)-4-fluoropyrrolidin-1-yl)-2-oxoethyl)-3,4-dihydro-1H-pyrido[3,4-b]indol-2(9H)-yl)-3-oxopropanoate]",> 10 µM
25,"NC(=O)N1CC(NC(=O)[C@@H]2CCC[C@H]2C(=O)NCc2cccc(Cl)c2F)c2ccccc21 (stereo partly drawn) [Compound 26, (1R,2R)-N1-(1-carbamoylindolin-3-yl)-N2-(3-chloro-2-fluorobenzyl)cyclopentane-1,2-dicarboxamide]",> 10 µM
26,"NC(=O)c1nn(CC(=O)N2C[C@H](F)C[C@H]2C(=O)Nc2cccc(-c3c(F)cc(F)cc3Cl)c2)c2cnccc12 [Compound 101, 1-(2-((2S,4R)-2-(2′-chloro-4′,6′-difluorobiphenyl-3-ylcarbamoyl)-4-fluoropyrrolidin-1-yl)-2-oxoethyl)-1H-pyrazolo[3,4-c]pyridine-3-carboxamide]",< 1 µM
27,"O=C(c1cn(CC(=O)N2C[C@H](F)C[C@H]2C(=O)NCc2cccc(Cl)c2F)c2ccccc12)C1CC1 [Compound 24, (2S,4R)-N-(3-chloro-2-fluorobenzyl)-1-(2-(3-(cyclopropanecarbonyl)-1H-indol-1-yl)acetyl)-4-fluoropyrrolidine-2-carboxamide]",< 1 µM
28,"N#Cc1cccc2c(C(N)=O)nn(CC(=O)N3C[C@H](F)C[C@H]3C(=O)Nc3cccc(-c4ccccc4Cl)c3F)c12 [Compound 111, 1-(2-((2S,4R)-2-(2′-chloro-2-fluorobiphenyl-3-ylcarbamoyl)-4-fluoropyrrolidin-1-yl)-2-oxoethyl)-7-cyano-1H-indazole-3-carboxamide]",< 1 µM
29,"COc1ccc2c(O[C@@H]3C[C@@H](C(=O)NCc4cccc(Cl)c4F)N(C(=O)Cn4cc(C(C)=O)c5ccccc54)C3)cc(-c3ccccc3)nc2c1 [Compound 29, (2S,4R)-1-(2-(3-acetyl-1H-indol-1-yl)acetyl)-N-(3-chloro-2-fluorobenzyl)-4-(7-methoxy-2-phenylquinolin-4-yloxy)pyrrolidine-2-carboxamide]",> 10 µM

# From patent US9758537B2 (Achillion Pharmaceuticals, Inc., priority 2014, dated 2017)
